Measured values reported in US12390441B2, “Immunomodulating o-het/aryl azalides” (Zoetis Services LLC, priority 2020, dated 2025).

Legend:
Experiment in all cases: Whole blood assay, LPS stimulation, MSD cytokine detection
TNF-α = format: cell-based; conditions: fresh whole bovine blood
Experimental: (§1) Compounds of the invention were evaluated against a positive control for their ability to inhibit LPS-induced IL-1p and TNF-α as an overall evaluation of relative potency and modulation of target pathways.
(§2) In the bovine whole blood in vitro screening assay the inhibition of TNFα as induced by stimulation by lipopolysaccharide (LPS) and as measured by half the maximal inhibitory concentration (IC50) is recognized as the primary biomarker of immunomodulation potency upon pretreatment with the compounds of the invention. IL-1β is a mediator of the inflammation response and is involved in a number of cellular activities including proliferation, differentiation and apoptosis. IL-1β is also released upon cellular stress or cytotoxicity or upon TLR stimulation. In the bovine whole blood assay the stimulation of IL-1β release upon increasing concentration of test compound is seen as a potential cellular toxicity signal as induced by the test compound. In order to estimate a therapeutic index from the in vitro assay a differential between the TNFα IC50 (immunomodulation potency) versus the perceived cellular toxicity concentration (IL-1β release or overstimulation) was utilized. […] As the in vitro assay index approaches 1 it is proposed that the balance between immunomodulation and cytotoxicity would be too narrow in order to achieve an efficacious dose in vivo.

IL-1β = format: cell-based, bovine; conditions: fresh whole bovine blood, LPS stimulation; drug concentration giving overstimulation (OS) of IL-1β
Experimental: as §1, §2

IL-6 = format: cell-based; conditions: fresh whole bovine blood

## CCCNC[C@]1(O)[C@H](C)O[C@@H](O[C@H]2[C@H](C)[C@@H](O[C@@H]3O[C@H](C)C[C@H](N(C)Cc4nccs4)[C@H]3Oc3ccccc3)[C@](C)(O)C[C@@H](C)CN[C@H](C)[C@@H](O)[C@](C)(O)[C@@H](CC)OC(=O)[C@@H]2C)C[C@@]1(C)OC [Example E-150]
TNF-α
  IC50: 6 µM
IL-1β
  IL-1ß OS of LPS: 1 µM
IL-6
  IC50: 3 µM

## CC[C@H]1OC(=O)[C@H](C)[C@@H](O[C@H]2C[C@@](C)(OC)[C@](O)(CNCCOC)[C@H](C)O2)[C@H](C)[C@@H](O[C@@H]2O[C@H](C)C[C@H](NC)[C@H]2Oc2ccccc2)[C@](C)(O)C[C@@H](C)CN[C@H](C)[C@@H](O)[C@]1(C)O [Example E-130]
TNF-α
  IC50: 32 µM
IL-1β
  IL-1ß OS of LPS: 40 µM
IL-6
  IC50: 71 µM

## CC[C@H]1OC(=O)[C@H](C)[C@@H](O[C@H]2C[C@@](C)(OC)[C@@H](O)[C@H](C)O2)[C@H](C)[C@@H](O[C@@H]2O[C@H](C)C[C@H](N(C)C)[C@H]2Oc2ccc(F)cc2)[C@](C)(O)C[C@@H](C)CN(C)[C@H](C)[C@@H](O)[C@]1(C)O [Example A-23]
TNF-α
  IC50: 5 µM
IL-1β
  IL-1ß OS of LPS: 6 µM
IL-6
  IC50: 50 µM

## CC[C@H]1OC(=O)[C@H](C)[C@@H](O[C@H]2C[C@@](C)(OC)[C@](O)(CNC(C)C)[C@H](C)O2)[C@H](C)[C@@H](O[C@@H]2O[C@H](C)C[C@H](N(C)C)[C@H]2Oc2ccc(F)cc2)[C@](C)(O)C[C@@H](C)CN[C@H](C)[C@@H](O)[C@]1(C)O [Example E-117]
TNF-α
  IC50: 6 µM
IL-1β
  IL-1ß OS of LPS: 16 µM
IL-6
  IC50: 11 µM

## CCCNC[C@]1(O)[C@H](C)O[C@@H](O[C@H]2[C@H](C)[C@@H](O[C@@H]3O[C@H](C)C[C@H](NCC(C)C)[C@H]3Oc3ccccc3)[C@](C)(O)C[C@@H](C)CN[C@H](C)[C@@H](O)[C@](C)(O)[C@@H](CC)OC(=O)[C@@H]2C)C[C@@]1(C)OC [Example E-155]
TNF-α; Bos taurus
  IC50: 8 µM
IL-1β
  IL-1ß OS of LPS: 6 µM
IL-6; Bos taurus
  IC50: 8 µM

## CC[C@H]1OC(=O)[C@H](C)[C@@H](O[C@H]2C[C@@](C)(OC)[C@](O)(CNn3ccnc3)[C@H](C)O2)[C@H](C)[C@@H](O[C@@H]2O[C@H](C)C[C@H](NC)[C@H]2Oc2ccccc2)[C@](C)(O)C[C@@H](C)CN[C@H](C)[C@@H](O)[C@]1(C)O [Example E-138]
TNF-α
  IC50: 48 µM
IL-1β
  IL-1ß OS of LPS: 40 µM
IL-6
  IC50: 87 µM

## CCCNC[C@]1(O)[C@H](C)O[C@@H](O[C@H]2[C@H](C)[C@@H](O[C@@H]3O[C@H](C)C[C@H](N(C)C)[C@H]3Oc3ccc4ncccc4c3)[C@](C)(O)C[C@@H](C)CN[C@H](C)[C@@H](O)[C@](C)(O)[C@@H](CC)OC(=O)[C@@H]2C)C[C@@]1(C)OC [Example E-69]
TNF-α
  IC50: 19 µM
IL-1β
  IL-1ß OS of LPS: 16 µM
IL-6
  IC50: 68 µM

## CC[C@H]1OC(=O)[C@H](C)[C@@H](O)[C@H](C)[C@@H](O[C@@H]2O[C@H](C)C[C@H](N(C)C(=O)N(C)c3ccccc3)[C@H]2Oc2cc(F)c(OC)c(F)c2)[C@](C)(O)C[C@@H](C)CN[C@H](C)[C@@H](O)[C@]1(C)O [Example C-42]
TNF-α
  IC50: 5 µM
IL-1β
  IL-1ß OS of LPS: 16 µM
IL-6
  IC50: 12 µM

## CC[C@H]1OC(=O)[C@H](C)[C@@H](O[C@H]2C[C@@](C)(OC)[C@@H](O)[C@H](C)O2)[C@H](C)[C@@H](O[C@@H]2O[C@H](C)C[C@H](N(C)C)[C@H]2Oc2cnc(Cl)cc2C)[C@](C)(O)C[C@@H](C)CN(C)[C@H](C)[C@@H](O)[C@]1(C)O [Example A-45]
TNF-α
  IC50: 4 µM
IL-1β
  IL-1ß OS of LPS: 40 µM
IL-6
  IC50: 12 µM

## CC[C@H]1OC(=O)[C@H](C)[C@@H](O[C@H]2C[C@@](C)(OC)[C@](O)(CNC(C)C)[C@H](C)O2)[C@H](C)[C@@H](O[C@@H]2O[C@H](C)C[C@H](N(C)C)[C@H]2Oc2ccccc2)[C@](C)(O)C[C@@H](C)CN[C@H](C)[C@@H](O)[C@]1(C)O [Example E-142]
TNF-α
  IC50: 4 µM
IL-1β
  IL-1ß OS of LPS: 16 µM
IL-6
  IC50: 18 µM

## CCCNC[C@]1(O)[C@H](C)O[C@@H](O[C@H]2[C@H](C)[C@@H](O[C@@H]3O[C@H](C)C[C@H](N(C)Cc4ccc(OC)cc4)[C@H]3Oc3ccccc3)[C@](C)(O)C[C@@H](C)CN[C@H](C)[C@@H](O)[C@](C)(O)[C@@H](CC)OC(=O)[C@@H]2C)C[C@@]1(C)OC [Example E-147]
TNF-α
  IC50: 6 µM
IL-1β
  IL-1ß OS of LPS: 4 µM
IL-6
  IC50: 5 µM

## CC[C@H]1OC(=O)[C@H](C)[C@@H](O[C@H]2C[C@@](C)(OC)[C@@H](O)[C@H](C)O2)[C@H](C)[C@@H](O[C@@H]2O[C@H](C)C[C@H](NC)[C@H]2Oc2ccccc2C#N)[C@](C)(O)C[C@@H](C)CN(C)[C@H](C)[C@@H](O)[C@]1(C)O [Example A-36]
TNF-α
  IC50: 13 µM
IL-1β
  IL-1ß OS of LPS: 100 µM
IL-6
  IC50: 13 µM

## CCCNC[C@]1(O)[C@H](C)O[C@@H](O[C@H]2[C@H](C)[C@@H](O[C@@H]3O[C@H](C)C[C@H](N(C)Cc4ccccc4)[C@H]3Oc3ccccc3)[C@](C)(O)C[C@@H](C)CN[C@H](C)[C@@H](O)[C@](C)(O)[C@@H](CC)OC(=O)[C@@H]2C)C[C@@]1(C)OC [Example E-148]
TNF-α
  IC50: 2 µM
IL-1β
  IL-1ß OS of LPS: 1 µM
IL-6
  IC50: 1 µM

## CC[C@H]1OC(=O)[C@H](C)[C@@H](O[C@H]2C[C@@](C)(OC)[C@](O)(CNC(C)C)[C@H](C)O2)[C@H](C)[C@@H](O[C@@H]2O[C@H](C)C[C@H](NC)[C@H]2Oc2ccccc2)[C@](C)(O)C[C@@H](C)CN[C@H](C)[C@@H](O)[C@]1(C)O [Example E-127]
TNF-α
  IC50: 19 µM
IL-1β
  IL-1ß OS of LPS: 40 µM
IL-6
  IC50: 44 µM

## CC[C@H]1OC(=O)[C@H](C)[C@@H](O)[C@H](C)[C@@H](O[C@@H]2O[C@H](C)C[C@H](N(C)C(=O)N(C)c3ccccc3)[C@H]2Oc2ccc(OC)c(OC(C)C)c2)[C@](C)(O)C[C@@H](C)CN[C@H](C)[C@@H](O)[C@]1(C)O [Example C-34]
TNF-α
  IC50: 28 µM
IL-1β
  IL-1ß OS of LPS: 16 µM
IL-6
  IC50: 16 µM

## CCCNC[C@]1(O)[C@H](C)O[C@@H](O[C@H]2[C@H](C)[C@@H](O[C@@H]3O[C@H](C)C[C@H](N(C)C(=O)N(C)C(C)C)[C@H]3Oc3ccccc3)[C@](C)(O)C[C@@H](C)CN[C@H](C)[C@@H](O)[C@](C)(O)[C@@H](CC)OC(=O)[C@@H]2C)C[C@@]1(C)OC [Example F-27]
TNF-α
  IC50: 11 µM
IL-1β
  IL-1ß OS of LPS: 1 µM
IL-6
  IC50: 4 µM

## CCCNC[C@]1(O)[C@H](C)O[C@@H](O[C@H]2[C@H](C)[C@@H](O[C@@H]3O[C@H](C)C[C@H](NC)[C@H]3Oc3ccc(OC)cc3)[C@](C)(O)C[C@@H](C)CN(C)[C@H](C)[C@@H](O)[C@](C)(O)[C@@H](CC)OC(=O)[C@@H]2C)C[C@@]1(C)OC [Example E-151]
TNF-α
  IC50: 23 µM
IL-1β
  IL-1ß OS of LPS: 16 µM
IL-6
  IC50: 23 µM

## CC[C@H]1OC(=O)[C@H](C)[C@@H](O[C@H]2C[C@@](C)(OC)[C@](O)(CNCCOC)[C@H](C)O2)[C@H](C)[C@@H](O[C@@H]2O[C@H](C)C[C@H](N(C)C)[C@H]2Oc2ccccc2)[C@](C)(O)C[C@@H](C)CN[C@H](C)[C@@H](O)[C@]1(C)O [Example E-145]
TNF-α
  IC50: 17 µM
IL-1β
  IL-1ß OS of LPS: >250 µM
IL-6
  IC50: 42 µM

## CCCNC[C@]1(O)[C@H](C)O[C@@H](O[C@H]2[C@H](C)[C@@H](O[C@@H]3O[C@H](C)C[C@H](NC4CCCCC4)[C@H]3Oc3ccccc3)[C@](C)(O)C[C@@H](C)CN[C@H](C)[C@@H](O)[C@](C)(O)[C@@H](CC)OC(=O)[C@@H]2C)C[C@@]1(C)OC [Example E-154]
TNF-α
  IC50: 5 µM
IL-1β
  IL-1ß OS of LPS: 1 µM
IL-6
  IC50: 4 µM

## CCCNC[C@]1(O)[C@H](C)O[C@@H](O[C@H]2[C@H](C)[C@@H](O[C@@H]3O[C@H](C)C[C@H](N(C)Cc4cccnc4)[C@H]3Oc3ccccc3)[C@](C)(O)C[C@@H](C)CN[C@H](C)[C@@H](O)[C@](C)(O)[C@@H](CC)OC(=O)[C@@H]2C)C[C@@]1(C)OC [Example E-149]
TNF-α
  IC50: 10 µM
IL-1β
  IL-1ß OS of LPS: 2 µM
IL-6
  IC50: 6 µM

## CCCNC[C@]1(O)[C@H](C)O[C@@H](O[C@H]2[C@H](C)[C@@H](O[C@@H]3O[C@H](C)C[C@H](N(C)C(=O)N(C)c4ncccn4)[C@H]3Oc3ccccc3)[C@](C)(O)C[C@@H](C)CN[C@H](C)[C@@H](O)[C@](C)(O)[C@@H](CC)OC(=O)[C@@H]2C)C[C@@]1(C)OC [Example F-8]
TNF-α
  IC50: 169 µM
IL-1β
  IL-1ß OS of LPS: 40 µM
IL-6
  IC50: 167 µM

## CC[C@H]1OC(=O)[C@H](C)[C@@H](O[C@H]2C[C@@](C)(OC)[C@@H](O)[C@H](C)O2)[C@H](C)[C@@H](O[C@@H]2O[C@H](C)C[C@H](NC)[C@H]2Oc2cccc(S(=O)(=O)CC)c2)[C@](C)(O)C[C@@H](C)CN(C)[C@H](C)[C@@H](O)[C@]1(C)O [Example A-41]
TNF-α
  IC50: 5 µM
IL-1β
  IL-1ß OS of LPS: 16 µM
IL-6
  IC50: 19 µM
